In US20120316211A1, “Diagnostic Methods for Assessing Risk of Chagas Disease and Heart Failure” (The Board or Regents of the University of Texas System, priority 2011, published 2012):

Tests used:
T. cruzi [1] = experiment: Detection of carbonyl proteins (DNPH, anti-DNP Western blotting) in plasma of T. cruzi infected rats; assay type: in vivo, Sprague Dawley rats
Experimental: (§1) Animals and parasites. Sprague Dawley rats (4-5-weeks-old, Harlan Labs) were infected with T. cruzi (SylvioX10/4, 50,000 trypomastigotes/rat, intraperitoneal). Rats were given 1.3 mM PBN (beginning day 0, throughout the course of infection) and/or 0.7 mM BZ (beginning day 40 pi, for three weeks) in drinking water. The plasma samples were obtained at acute ([…] days post-infection (dpi)) and chronic (>150 dpi) stages of infection and disease development.
Detection of carbonyl proteins. IPG strips were loaded with protein samples and subjected to 1st-dimension isoelectric focusing, as above. IPG strips were then incubated with 1 ml of 3% SDS and 5 mM 2,4-dinitrophenylhydrazine (DNPH)/10% trifluoroacetic acid for 25 min. […] Membranes were hybridized with rabbit anti-DNP antibody (1:300 dilution, Invitrogen) and HRP-conjugated goat anti-rabbit secondary antibody (1:4000 dilution, Sigma), and signal detected by using an Amersham™ ECL Plus system, according to the manufacturer's protocol (Levine et al., (1990) Methods Enzymol, 186, 464-78; Wen and Garg, (2004) Free Radic Biol Med, 37, 2072-81). Images were visualized, digitized, and signal was quantified by densitometry by using a FluorChem 8800 image analyzer (Alpha Innotech). […]

T. cruzi [2] = experiment: 2D-GE plasma proteome profile of T. cruzi infected rats treated with PBN and/or BZ; assay type: in vivo, Sprague Dawley rats
Experimental: as §1
(§2) Rat plasma collection and removal of high-abundance proteins. Whole blood was collected in K3EDTA vacutainers and kept on ice for 30 min. The samples were centrifuged for 15 min at 3,000 g, and the lipid-containing upper layer was removed. The abundant proteins (e.g., albumin, α1-acid glycoprotein, α1-antitrypsin, α2-5 macroglobulin, apolipoproteins (ApoA-I, ApoA-II), fibrinogen, haptoglobin, immunoglobulins (IgA, IgG, and IgM), and transferrin) in plasma were removed using ProteomeLab IgY-12 LC 10 affinity spin columns (Beckman Coulter). The plasma samples depleted of abundant proteins were then concentrated by using Amicon® ultra centrifugal filters (3 kDa cut-off, from Millipore) and desalted by PD-10 desalting columns (GE Healthcare). Protein content was determined by using the Bradford assay (Bio-Rad).
(§3) Two-dimensional gel electrophoresis. The 11-cm immobilized pH gradient (IPG) strips (pH: 3-10 or 5-8, Bio-Rad) were rehydrated at 50 V for 12 h with 250-μl rehydration buffer (1 M thiourea, 8 M urea, 2% CHAPS, 1% dithiothreitol, and 0.2% ampholytes) containing 200-μg protein samples and 0.002% of bromophenol blue. Isoelectric focusing was performed at 500 V for 1 h, 1000 V for 1 h, 8000 V for 2 h, and then at 8000 V for a total of 50,000 Vh. The IPG strips were suspended in equilibration buffer (50 mM Tris-HCI, pH 6.8, 6 M urea, 20% glycerol) and sequentially incubated for 15 min each in presence of 2% DTT/2% SDS (reducing conditions) and 2.5% iodoacetamide/2% SDS (alkylating conditions). Equilibrated IPG strips were subjected to second-dimension electrophoresis by using 8-10% linear gradient precast Tris-HCI gels (BioRad) on a PROTEAN plus Dodeca Cell System at 75 V for 1 h and then at 120 V until the dye front reached the bottom of the gel. Gels were fixed in 10% methanol/7% acetic acid, stained with SYPRO Ruby (BioRad), destained in 10% ethanol/7% acetic acid, and imaged by using a high-resolution ProXPRESS Proteomic Imaging System (Perkin Elmer).
(§4) Image analysis. In total, 28 SYPRO Ruby-stained 2D gels (n=4/group) were digitalized on a ProXPRESS Proteomic Imaging System (Perkin Elmer), and the images were analyzed on Progenesis SameSpots™ software 2.0 (NonLinear Dynamics). Normalized spot volumes, i.e., the volume of each spot over the volume of all spots in the gel, were used for comparison of the different groups, and candidates were identified as protein spots that changed at least 2-fold versus their specific control. Statistical significance was assessed by a two-tailed Student's t-test and analysis of variance test (ANOVA), and p values of <0.05 were considered significant for comparison between control and experimental data.
(§5) Sprague Dawley rats were infected with T. cruzi and treated with phenyl-α-tert-butyl nitrone (PBN, antioxidant) with or without benznidazole (BZ, anti-parasite drug). Plasma samples were collected at day 25 (acute stage) and 150 (chronic stage) post-infection, and depleted of high-abundance proteins to enrich detection of low-abundance proteins by 2D-gel electrophoresis. Gel images of plasma samples from normal rats (RN), rats that were acutely infected (RA) and treated with PBN (RAP), and chronically infected rats (RC) that were treated with PBN (RCP), BZ (RCB), or PBN and BZ (RCPB) were analyzed on Progenesis SameSpotst™ software and normalized spot volumes were used for comparison of different groups.

[3] = as above; assay type: in vivo, Sprague Dawley rats; details: chronically infected rats (RCP, RCB, RCPB), depleted plasma
Experimental: as §1, §2, §3, §4, §5

Trypanosoma cruzi = details: cited from earlier work
[4] = chronically infected rats (RCP, RCB, RCPB), depleted plasma

O=C(Cn1ccnc1[N+](=O)[O-])NCc1ccccc1 [BZ, Benznidazole]
protein carbonylation (T. cruzi [1]; chronic chagasic plasma): not effective in preventing protein carbonylation | carbonylated protein spots (T. cruzi [1]; chronically infected rats (RCP, RCB, RCPB), plasma): 31 | number of proteins stimulated in a treatment-specific manner (T. cruzi [2]; chronic chagasic plasma): 2 | number of proteins with altered expression (T. cruzi [2]; chronic chagasic plasma, 22 of the 61 shared with BZ-treated rats): 22 | decline in the plasma proteome profile (T. cruzi [2]; chronically infected rats): 30.1% | Average Normalized Density × 100,000, spot 12, 180 KRT1 (T. cruzi [2]; [4]): 9.47 | Average Normalized Density × 100,000, spot 34 TTC37 (T. cruzi [2]; [4]): 0.37 | Average Normalized Density × 100,000, spot 37, 593 SRPRB (T. cruzi [2]; [4]): 3.21 | Average Normalized Density × 100,000, spot 49, 673 IGH-1 (T. cruzi [2]; [4]): 3.98 | Average Normalized Density × 100,000, spot 52, 54, 302 TF (T. cruzi [2]; [4]): 0.60 | Average Normalized Density × 100,000, spot 53, 225 SroTP (T. cruzi [2]; [4]): 1.72 | Average Normalized Density × 100,000, spot 72 IDH3A (T. cruzi [2]; [4]): 83.09 | Average Normalized Density × 100,000, spot 73, 705, 787 ALB (T. cruzi [2]; [4]): 216.9 | Average Normalized Density × 100,000, spot 77 MUG1 (T. cruzi [2]; [4]): 107.7 | Average Normalized Density × 100,000, spot 88 IGHG- (T. cruzi [2]; [4]): 4.75 | Average Normalized Density × 100,000, spot 94 FGB (T. cruzi [2]; [4]): 0.55 | Average Normalized Density × 100,000, spot 115, 123 SERPINAL1 (T. cruzi [2]; [4]): 8.36 | Average Normalized Density × 100,000, spot 149 PUS1 (T. cruzi [2]; [4]): 1.16 | Average Normalized Density × 100,000, spot 153 MYL2 (T. cruzi [2]; [4]): 2.37 | Average Normalized Density × 100,000, spot 177 AIM (T. cruzi [2]; [4]): 2.77 | Average Normalized Density × 100,000, spot 181 SERPINA3L (T. cruzi [2]; [4]): 7.53 | Average Normalized Density × 100,000, spot 184, 257, 328 CFH (T. cruzi [2]; [4]): 6.15 | Average Normalized Density × 100,000, spot 207, 555 CCHL1A1 (T. cruzi [2]; [4]): 11.32 | Average Normalized Density × 100,000, spot 215 GPT (T. cruzi [2]; [4]): 3.23 | Average Normalized Density × 100,000, spot 266 CEP350 (T. cruzi [2]; [4]): 1.43 | Average Normalized Density × 100,000, spot 299 UMPS (T. cruzi [2]; [4]): 1.17 | Average Normalized Density × 100,000, spot 315 ITIH4 (T. cruzi [2]; [4]): 5.19 | Average Normalized Density × 100,000, spot 334 ZNF689 (T. cruzi [2]; [4]): 1.05 | Average Normalized Density × 100,000, spot 341 Nmag 2782 (T. cruzi [2]; [4]): 1.44 | Average Normalized Density × 100,000, spot 355, 359 PLG (T. cruzi [2]; [4]): 3.29 | Average Normalized Density × 100,000, spot 382, 385, 378, 572, 578, 595 CFB (T. cruzi [2]; [4]): 23.45 | Average Normalized Density × 100,000, spot 389 GSN (T. cruzi [2]; [4]): 44.17 | Average Normalized Density × 100,000, spot 430 SCD2 (T. cruzi [2]; [4]): 13.65 | Average Normalized Density × 100,000, spot 434, 678 COG1 (T. cruzi [2]; [4]): 43.20 | Average Normalized Density × 100,000, spot 439 C4BPA (T. cruzi [2]; [4]): 1.36 | Average Normalized Density × 100,000, spot 452 AFM (T. cruzi [2]; [4]): 59.65 | Average Normalized Density × 100,000, spot 464 IGH-6 (T. cruzi [2]; [4]): 4.66 | Average Normalized Density × 100,000, spot 479 IGHM (T. cruzi [2]; [4]): 8.65 | Average Normalized Density × 100,000, spot 493 ZFP637 (T. cruzi [2]; [4]): 17.41 | Average Normalized Density × 100,000, spot 515 CESIC/ES2 (T. cruzi [2]; [4]): 24.22 | Average Normalized Density × 100,000, spot 524 ERCC4 (T. cruzi [2]; [4]): 68.54 | Average Normalized Density × 100,000, spot 551, 587, 908 C3 (T. cruzi [2]; [4]): 32.88 | Average Normalized Density × 100,000, spot 559 HPX (T. cruzi [2]; [4]): 17.91 | Average Normalized Density × 100,000, spot 571 GC (T. cruzi [2]; [4]): 3.75 | Average Normalized Density × 100,000, spot 576, 620 Act-248 (T. cruzi [2]; [4]): 2.38 | Average Normalized Density × 100,000, spot 586, 614 SERPINC1 (T. cruzi [2]; [4]): 132.20 | Average Normalized Density × 100,000, spot 592 DNASE1L1 (T. cruzi [2]; [4]): 11.70 | Average Normalized Density × 100,000, spot 604 APOH (T. cruzi [2]; [4]): 67.12 | Average Normalized Density × 100,000, spot 606 GC (T. cruzi [2]; [4]): 11.27 | Average Normalized Density × 100,000, spot 627 MAPI (T. cruzi [2]; [4]): 44.92 | Average Normalized Density × 100,000, spot 638 LOC501738 (T. cruzi [2]; [4]): 4.69 | Average Normalized Density × 100,000, spot 649 SYNE2 (T. cruzi [2]; [4]): 26.48 | Average Normalized Density × 100,000, spot 651 DSTN (T. cruzi [2]; [4]): 37.12 | Average Normalized Density × 100,000, spot 655 DLGAP2 (T. cruzi [2]; [4]): 151.30 | Average Normalized Density × 100,000, spot 672 SERPINF (T. cruzi [2]; [4]): 23.29 | Average Normalized Density × 100,000, spot 676 rCG33447 (T. cruzi [2]; [4]): 24.67 | Average Normalized Density × 100,000, spot 691 APOA4 (T. cruzi [2]; [4]): 65.41 | Average Normalized Density × 100,000, spot 715 SERPINA1 (T. cruzi [2]; [4]): 30.96 | Average Normalized Density × 100,000, spot 724 ALB (T. cruzi [2]; [4]): 2.19 | Average Normalized Density × 100,000, spot 728 SYMPK (T. cruzi [2]; [4]): 2.21 | Average Normalized Density × 100,000, spot 733 DECR2 (T. cruzi [2]; [4]): 1.67 | Average Normalized Density × 100,000, spot 740 PRPH (T. cruzi [2]; [4]): 4.02 | Average Normalized Density × 100,000, spot 745 PFKFB1 (T. cruzi [2]; [4]): 2.30 | Average Normalized Density × 100,000, spot 749 MY05B (T. cruzi [2]; [4]): 2.46 | Average Normalized Density × 100,000, spot 766 SCG2 (T. cruzi [2]; [4]): 3.79 | Average Normalized Density × 100,000, spot 779, 909 VIM (T. cruzi [2]; [4]): 3.08 | Average Normalized Density × 100,000, spot 796 Hypothetical p (T. cruzi [2]; [4]): 5.11 | Average Normalized Density × 100,000, spot 814 RBM15B (T. cruzi [2]; [4]): 3.61 | Average Normalized Density × 100,000, spot 817 BRPF1 (T. cruzi [2]; [4]): 25.15 | Average Normalized Density × 100,000, spot 820, 1081 BFAR (T. cruzi [2]; [4]): 13.38 | Average Normalized Density × 100,000, spot 827 GNAT (T. cruzi [2]; [4]): 10.78 | Average Normalized Density × 100,000, spot 832 PSMB (T. cruzi [2]; [4]): 3.47 | Average Normalized Density × 100,000, spot 860 KRT10 (T. cruzi [2]; [4]): 2.64 | Average Normalized Density × 100,000, spot 867 RAI14 (T. cruzi [2]; [4]): 2.41 | Average Normalized Density × 100,000, spot 881 CHD4 (T. cruzi [2]; [4]): 28.89 | Average Normalized Density × 100,000, spot 897 MY05A (T. cruzi [2]; [4]): 11.65 | Average Normalized Density × 100,000, spot 900 rCG25416 (T. cruzi [2]; [4]): 7.06 | Average Normalized Density × 100,000, spot 906 APOE (T. cruzi [2]; [4]): 74.42 | Average Normalized Density × 100,000, spot 966 CMRF-35-like molecule-7 (T. cruzi [2]; [4]): 49.99 | Average Normalized Density × 100,000, spot 979 rCG25357 (T. cruzi [2]; [4]): 31.72 | Average Normalized Density × 100,000, spot 992 APOA1 (T. cruzi [2]; [4]): 38.11 | protein spots observed (2D-GE) (T. cruzi [2]; [4]): 2486 | differentially expressed proteins identified in chagasic plasma of treated rats (T. cruzi [2]; share of differentially expressed protein spots, FIG. 7B): 17% | Average Normalized Density × 100,000, spot 106 CDK5RAP2 [3]: 2.21 | controlling parasitemia (Trypanosoma cruzi; acutely infected individuals): effective | efficacy in arresting or reversing disease progression (Trypanosoma cruzi; chronically infected patients): not clearly established
